Measured values as given in patent US9988403B2, “Compositions and methods for treating cancer with aberrant lipogenic signaling” (Thomas Jefferson University, priority 2012, dated 2018).

System: Drosophila
Test: Drosophila development, viability and life span on compound food
Format: in vivo

CC1(C)OB(c2ccc(/C=C/c3ccc(O)cc3)cc2)OC1(C)C [BF102]
Drosophila development and viability (200 μM in food): do not affect
life span of adult flies (adult flies fed food mixed with compound, data not shown): do not have any obvious effect
